Assay results taken from the NIST ThermoML archive (doi:10.1021/je0342769).
Values joined by “and” are separate entries in the source; they are usually repeats but may differ in a detail not shown here. Equal entries are not always repeated. Numbers after ± are expanded uncertainties.

Conditions: Liquid, Closed cell (Static) method

## FC(C(F)(F)F)C(F)(F)F [1,1,1,2,3,3,3-heptafluoropropane]
253.31 K
  vapor or sublimation pressure: 86.81 ± 0.56 kPa
253.32 K
  vapor or sublimation pressure: 86.83 ± 0.56 kPa
253.33 K
  vapor or sublimation pressure: 86.86 ± 0.56 kPa
255.21 K
  vapor or sublimation pressure: 94.46 ± 0.56 kPa
257.26 K
  vapor or sublimation pressure: 103.23 ± 0.57 kPa and 103.26 ± 0.57 kPa
259.59 K
  vapor or sublimation pressure: 114.05 ± 0.57 kPa
261.28 K
  vapor or sublimation pressure: 122.37 ± 0.58 kPa
263.26 K
  vapor or sublimation pressure: 132.72 ± 0.58 kPa
265.17 K
  vapor or sublimation pressure: 143.42 ± 0.83 kPa
267.15 K
  vapor or sublimation pressure: 155.12 ± 0.83 kPa and 155.14 ± 0.83 kPa
269.19 K
  vapor or sublimation pressure: 167.93 ± 0.84 kPa
271.14 K
  vapor or sublimation pressure: 181.01 ± 0.85 kPa
273.13 K
  vapor or sublimation pressure: 195.16 ± 0.85 kPa
273.14 K
  vapor or sublimation pressure: 195.21 ± 0.85 kPa
273.16 K
  vapor or sublimation pressure: 195.29 ± 0.85 kPa
275.15 K
  vapor or sublimation pressure: 210.31 ± 0.86 kPa
275.17 K
  vapor or sublimation pressure: 210.44 ± 0.86 kPa
275.18 K
  vapor or sublimation pressure: 210.49 ± 0.86 kPa
276.99 K
  vapor or sublimation pressure: 224.91 ± 0.87 kPa
279.19 K
  vapor or sublimation pressure: 243.27 ± 0.88 kPa
281.14 K
  vapor or sublimation pressure: 260.66 ± 0.89 kPa
283.18 K
  vapor or sublimation pressure: 279.74 ± 0.9 kPa
285.18 K
  vapor or sublimation pressure: 299.49 ± 0.91 kPa
285.19 K
  vapor or sublimation pressure: 299.62 ± 0.91 kPa
287.14 K
  vapor or sublimation pressure: 319.89 ± 0.93 kPa
289.07 K
  vapor or sublimation pressure: 340.97 ± 0.94 kPa
289.1 K
  vapor or sublimation pressure: 341.37 ± 0.95 kPa
291.06 K
  vapor or sublimation pressure: 363.71 ± 0.96 kPa
291.16 K
  vapor or sublimation pressure: 365.01 ± 0.96 kPa
293.04 K
  vapor or sublimation pressure: 387.68 ± 0.98 kPa
293.15 K
  vapor or sublimation pressure: 388.98 ± 0.98 kPa
293.23 K
  vapor or sublimation pressure: 390.05 ± 0.98 kPa
295.22 K
  vapor or sublimation pressure: 415.24 ± 1 kPa
295.32 K
  vapor or sublimation pressure: 416.61 ± 1 kPa
297.21 K
  vapor or sublimation pressure: 441.61 ± 1 kPa
297.22 K
  vapor or sublimation pressure: 441.76 ± 1 kPa
299.07 K
  vapor or sublimation pressure: 467.46 ± 1.1 kPa
299.16 K
  vapor or sublimation pressure: 468.9 ± 1.1 kPa
301.54 K
  vapor or sublimation pressure: 503.72 ± 1.1 kPa
303.66 K
  vapor or sublimation pressure: 536.19 ± 1.1 kPa
305.19 K
  vapor or sublimation pressure: 560.59 ± 1.1 kPa
307.19 K
  vapor or sublimation pressure: 593.83 ± 1.2 kPa
309.51 K
  vapor or sublimation pressure: 634.38 ± 1.2 kPa
311.16 K
  vapor or sublimation pressure: 664.23 ± 1.2 kPa
313.13 K
  vapor or sublimation pressure: 701.36 ± 1.3 kPa
315.11 K
  vapor or sublimation pressure: 740.37 ± 1.3 kPa
317.15 K
  vapor or sublimation pressure: 781.99 ± 1.4 kPa
317.5 K
  vapor or sublimation pressure: 789.45 ± 1.4 kPa
319.51 K
  vapor or sublimation pressure: 832.46 ± 1.4 kPa
321.16 K
  vapor or sublimation pressure: 869.25 ± 1.5 kPa
323.13 K
  vapor or sublimation pressure: 914.73 ± 1.6 kPa
323.17 K
  vapor or sublimation pressure: 915.9 ± 1.6 kPa
325.11 K
  vapor or sublimation pressure: 962.18 ± 1.6 kPa
329.17 K
  vapor or sublimation pressure: 1065.4 ± 1.7 kPa
333.69 K
  vapor or sublimation pressure: 1190.1 ± 1.9 kPa
339.17 K
  vapor or sublimation pressure: 1355.8 ± 2.1 kPa
344.87 K
  vapor or sublimation pressure: 1545.3 ± 2.4 kPa
349.82 K
  vapor or sublimation pressure: 1725.8 ± 2.7 kPa
353.22 K
  vapor or sublimation pressure: 1859.3 ± 2.9 kPa
357.13 K
  vapor or sublimation pressure: 2022.6 ± 3.2 kPa
361.12 K
  vapor or sublimation pressure: 2201.1 ± 3.5 kPa
364.88 K
  vapor or sublimation pressure: 2380.9 ± 3.7 kPa
369.16 K
  vapor or sublimation pressure: 2600 ± 4.1 kPa
373.22 K
  vapor or sublimation pressure: 2825.1 ± 4.4 kPa and 2825.2 ± 4.4 kPa and 2825.3 ± 4.4 kPa

## FC(F)CC(F)(F)F [1,1,1,3,3-pentafluoropropane]
255.22 K
  vapor or sublimation pressure: 21.93 ± 0.39 kPa
259.37 K
  vapor or sublimation pressure: 27.28 ± 0.39 kPa and 27.27 ± 0.39 kPa
263.27 K
  vapor or sublimation pressure: 33.25 ± 0.39 kPa and 33.24 ± 0.39 kPa
267.31 K
  vapor or sublimation pressure: 40.47 ± 0.39 kPa
271.03 K
  vapor or sublimation pressure: 48.26 ± 0.4 kPa
275.31 K
  vapor or sublimation pressure: 58.66 ± 0.4 kPa
279.32 K
  vapor or sublimation pressure: 69.99 ± 0.4 kPa and 69.98 ± 0.4 kPa
279.33 K
  vapor or sublimation pressure: 69.98 ± 0.4 kPa and 69.99 ± 0.4 kPa
283.2 K
  vapor or sublimation pressure: 82.37 ± 0.41 kPa and 82.36 ± 0.41 kPa
285.08 K
  vapor or sublimation pressure: 89.02 ± 0.41 kPa and 89.05 ± 0.41 kPa
288.91 K
  vapor or sublimation pressure: 103.68 ± 0.42 kPa and 103.67 ± 0.42 kPa
291.16 K
  vapor or sublimation pressure: 113.41 ± 0.43 kPa and 113.43 ± 0.43 kPa
291.17 K
  vapor or sublimation pressure: 113.42 ± 0.43 kPa
292.62 K
  vapor or sublimation pressure: 119.97 ± 0.43 kPa and 120.01 ± 0.43 kPa
295.55 K
  vapor or sublimation pressure: 134.37 ± 0.45 kPa and 134.41 ± 0.45 kPa
298.31 K
  vapor or sublimation pressure: 149.04 ± 0.46 kPa and 149.05 ± 0.46 kPa
300.16 K
  vapor or sublimation pressure: 159.38 ± 0.47 kPa
313.13 K
  vapor or sublimation pressure: 250.2 ± 0.54 kPa and 250.26 ± 0.54 kPa and 250.34 ± 0.54 kPa
317.43 K
  vapor or sublimation pressure: 287.67 ± 0.58 kPa and 287.72 ± 0.58 kPa and 287.84 ± 0.58 kPa
321.77 K
  vapor or sublimation pressure: 329.9 ± 0.63 kPa and 329.87 ± 0.63 kPa
327.34 K
  vapor or sublimation pressure: 390.52 ± 0.7 kPa and 390.61 ± 0.7 kPa
333.55 K
  vapor or sublimation pressure: 467.79 ± 0.79 kPa
344.96 K
  vapor or sublimation pressure: 639.43 ± 1 kPa
347.8 K
  vapor or sublimation pressure: 688.83 ± 1.1 kPa and 688.9 ± 1.1 kPa
351.54 K
  vapor or sublimation pressure: 757.91 ± 1.2 kPa and 757.93 ± 1.2 kPa and 757.86 ± 1.2 kPa
354.13 K
  vapor or sublimation pressure: 808.71 ± 1.3 kPa
354.15 K
  vapor or sublimation pressure: 809.38 ± 1.3 kPa
357.7 K
  vapor or sublimation pressure: 883.2 ± 1.4 kPa
362.21 K
  vapor or sublimation pressure: 984.31 ± 1.6 kPa and 984.35 ± 1.6 kPa
364.47 K
  vapor or sublimation pressure: 1038.2 ± 1.6 kPa
367.1 K
  vapor or sublimation pressure: 1103.6 ± 1.7 kPa
367.11 K
  vapor or sublimation pressure: 1103.6 ± 1.7 kPa
371.11 K
  vapor or sublimation pressure: 1209.3 ± 1.9 kPa
371.12 K
  vapor or sublimation pressure: 1209.3 ± 1.9 kPa
374.81 K
  vapor or sublimation pressure: 1313.1 ± 2.1 kPa
374.95 K
  vapor or sublimation pressure: 1317.3 ± 2.1 kPa
377.03 K
  vapor or sublimation pressure: 1378.9 ± 2.2 kPa
381.38 K
  vapor or sublimation pressure: 1514.3 ± 2.4 kPa
384.5 K
  vapor or sublimation pressure: 1617.4 ± 2.5 kPa
388.32 K
  vapor or sublimation pressure: 1751.2 ± 2.8 kPa
393.64 K
  vapor or sublimation pressure: 1950.8 ± 3.1 kPa
